Values of other authors in patent publication US7872019B2, “Polymorphs and amorphous form of (S)-(+)-clopidogrel bisulfate” (Cadila Healthcare Limited, priority 2003, dated 2011).

Key:
platelet aggregation = details: comparison of the two enantiomers, in words
[1] = comparison of the two enantiomers, in words

| SMILES | antiagregant platelet activity (platelet aggregation) | tolerance [1] |
| --- | --- | --- |
| COC(=O)[C@@H](c1ccccc1Cl)N1CCc2sccc2C1 (single isomer, unassigned) [levorotatory enantiomer of (I)] | less active | less tolerated |
| COC(=O)[C@H](c1ccccc1Cl)N1CCc2sccc2C1 [dextrorotatory enantiomer of formula (I) of Clopidogrel] | excellent antiagregant platelet activity |  |
